Measured values published in PubChem BioAssay AID256 (DTP/NCI, 2004).
“And” between values parts separate entries of the source, which are not always exact repeats. Equal values may be shown once. Inconclusive results and toxic doses are left out.

System: CD2F1 mice, L1210 leukemia ip, survival T/C
Experiment: NCI In Vivo Anticancer Drug Screen. Data for tumor model L1210 Leukemia (intraperitoneal) in CD2F1 (CDF1) mice
Conditions: higher = longer survival
Method in brief: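 Compound-dosed mice with transplantable tumor versus matched vehicle controls; endpoint ratio T/C reported.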

[1] = endpoint: mean survival time, dose: 100.0 mg/kg/injection, schedule: Q01DX009 (ip), vehicle: saline with Tween-80
[2] = endpoint: mean survival time, dose: 200.0 mg/kg/injection, schedule: Q01DX009 (ip), vehicle: saline with Tween-80
[3] = endpoint: mean survival time, dose: 400.0 mg/kg/injection, schedule: Q01DX009 (ip), vehicle: saline with Tween-80
[4] = endpoint: mean survival time, dose: 100.0 mg/kg/injection, schedule: Q04DX003 (ip), vehicle: saline with Tween-80
[5] = endpoint: mean survival time, dose: 100.0 mg/kg/injection, schedule: Q01DX001 (ip), vehicle: saline with Tween-80
[6] = endpoint: mean survival time, dose: 200.0 mg/kg/injection, schedule: Q01DX001 (ip), vehicle: saline with Tween-80
[7] = endpoint: mean survival time, dose: 400.0 mg/kg/injection, schedule: Q01DX001 (ip), vehicle: saline with Tween-80
[8] = endpoint: mean survival time, dose: 100.0 mg/kg/injection, schedule: Q04DX002 (ip), vehicle: saline
[9] = endpoint: mean survival time, dose: 200.0 mg/kg/injection, schedule: Q04DX002 (ip), vehicle: saline
[10] = endpoint: mean survival time, dose: 400.0 mg/kg/injection, schedule: Q04DX002 (ip), vehicle: saline
[11] = endpoint: mean survival time, dose: 200.0 mg/kg/injection, schedule: Q04DX003 (ip), vehicle: saline with Tween-80
[12] = endpoint: mean survival time, dose: 400.0 mg/kg/injection, schedule: Q04DX003 (ip), vehicle: saline with Tween-80

C1CCC(C2CCCC[N-]2)[N-]C1.CC(C)CC([NH-])C(=O)O.[Cl][Pt] (centres undefined)
T/C (endpoint: median survival time, dose: 10.0 mg/kg/injection, schedule: Q04DX003 (ip), vehicle: saline): 96 % of control | T/C (endpoint: median survival time, dose: 20.0 mg/kg/injection, schedule: Q04DX003 (ip), vehicle: saline): 100 % of control | T/C (endpoint: median survival time, dose: 40.0 mg/kg/injection, schedule: Q04DX003 (ip), vehicle: saline): 97 % of control | T/C (endpoint: median survival time, dose: 80.0 mg/kg/injection, schedule: Q04DX003 (ip), vehicle: saline): 101 % of control and 104 % of control | T/C (endpoint: median survival time, dose: 160.0 mg/kg/injection, schedule: Q04DX003 (ip), vehicle: saline): 104 % of control | T/C (endpoint: median survival time, dose: 320.0 mg/kg/injection, schedule: Q04DX003 (ip), vehicle: saline): 93 % of control

Nc1cc(Cl)cc2c1-c1ccc(Cl)cc1C2Br (centres undefined)
T/C (endpoint: mean survival time, dose: 50.0 mg/kg/injection, schedule: Q01DX001 (ip), vehicle: carboxymethylcellulose (CMC)): 102 % of control | T/C (endpoint: mean survival time, dose: 100.0 mg/kg/injection, schedule: Q01DX001 (ip), vehicle: carboxymethylcellulose (CMC)): 108 % of control | T/C (endpoint: mean survival time, dose: 200.0 mg/kg/injection, schedule: Q01DX001 (ip), vehicle: carboxymethylcellulose (CMC)): 108 % of control | T/C (endpoint: mean survival time, dose: 400.0 mg/kg/injection, schedule: Q01DX001 (ip), vehicle: carboxymethylcellulose (CMC)): 108 % of control

O=C1CC2C=CC1CC2 (centres undefined)
T/C (endpoint: mean survival time, dose: 100.0 mg/kg/injection, schedule: Q04DX003 (ip), vehicle: other): 105 % of control | T/C (endpoint: mean survival time, dose: 200.0 mg/kg/injection, schedule: Q04DX003 (ip), vehicle: other): 101 % of control | T/C (endpoint: mean survival time, dose: 400.0 mg/kg/injection, schedule: Q04DX003 (ip), vehicle: other): 100 % of control

CCOC(=O)C(OCC)c1ccccc1 (centres undefined)
T/C [1]: 105 % of control | T/C [2]: 101 % of control | T/C [3]: 95 % of control

CC(C)(C)NC/C(=C\c1ccccc1)C(=O)c1ccccc1
T/C (endpoint: mean survival time, dose: 25.0 mg/kg/injection, schedule: Q04DX003 (ip), vehicle: saline with Tween-80): 109 % of control | T/C (endpoint: mean survival time, dose: 50.0 mg/kg/injection, schedule: Q04DX003 (ip), vehicle: saline with Tween-80): 100 % of control | T/C [4]: 117 % of control

CC(=O)c1ccc2c([N+](=O)[O-])ccc3c2c1CC3
T/C [5]: 97 % of control | T/C [6]: 91 % of control | T/C [7]: 94 % of control

N#CSCCN1C(=O)C2C3CCC(O3)C2C1=O (centres undefined)
T/C (endpoint: mean survival time, dose: 25.0 mg/kg/injection, schedule: Q04DX002 (ip), vehicle: saline with Tween-80): 103 % of control

CC[P+](C)(CC)c1cccc(OC(=O)NC)c1
T/C (endpoint: mean survival time, dose: 0.05 mg/kg/injection, schedule: Q01DX001 (ip), vehicle: saline): 96 % of control | T/C (endpoint: mean survival time, dose: 0.1 mg/kg/injection, schedule: Q01DX001 (ip), vehicle: saline): 102 % of control | T/C (endpoint: mean survival time, dose: 0.2 mg/kg/injection, schedule: Q01DX001 (ip), vehicle: saline): 104 % of control

COc1ccc(/C=C2/Cc3cccc4c([N+](=O)[O-])ccc2c34)cc1
T/C [5]: 89 % of control | T/C [6]: 86 % of control | T/C [7]: 102 % of control

FC(F)(F)S.[Hg]
T/C (endpoint: mean survival time, dose: 5.0 mg/kg/injection, schedule: Q04DX003 (ip), vehicle: saline): 101 % of control | T/C (endpoint: mean survival time, dose: 10.0 mg/kg/injection, schedule: Q04DX003 (ip), vehicle: saline): 97 % of control | T/C (endpoint: mean survival time, dose: 20.0 mg/kg/injection, schedule: Q04DX003 (ip), vehicle: saline): 95 % of control

CNC(=O)Nc1nc2ccccc2[nH]1
T/C (endpoint: mean survival time, dose: 50.0 mg/kg/injection, schedule: Q04DX003 (ip), vehicle: Klucel (hydroxypropylcellulose) (HPC)): 101 % of control | T/C (endpoint: mean survival time, dose: 100.0 mg/kg/injection, schedule: Q04DX003 (ip), vehicle: Klucel (hydroxypropylcellulose) (HPC)): 102 % of control | T/C (endpoint: mean survival time, dose: 200.0 mg/kg/injection, schedule: Q04DX003 (ip), vehicle: Klucel (hydroxypropylcellulose) (HPC)): 104 % of control | T/C (endpoint: mean survival time, dose: 400.0 mg/kg/injection, schedule: Q04DX003 (ip), vehicle: Klucel (hydroxypropylcellulose) (HPC)): 102 % of control

C[C@]12C=CC(=O)C=C1CC[C@@H]1[C@@H]2[C@@H](O)C[C@@]2(C)[C@H]1CC[C@]2(O)C(=O)CO
T/C (endpoint: mean survival time, dose: 12.5 mg/kg/injection, schedule: Q01DX010 (sc), vehicle: steriod suspending solution): 108 % of control | T/C (endpoint: mean survival time, dose: 25.0 mg/kg/injection, schedule: Q01DX009 (sc), vehicle: steriod suspending solution): 106 % of control and 109 % of control | T/C (endpoint: mean survival time, dose: 25.0 mg/kg/injection, schedule: Q01DX010 (sc), vehicle: steriod suspending solution): 108 % of control | T/C (endpoint: mean survival time, dose: 50.0 mg/kg/injection, schedule: Q01DX009 (sc), vehicle: steriod suspending solution): 113 % of control and 106 % of control | T/C (endpoint: mean survival time, dose: 50.0 mg/kg/injection, schedule: Q01DX010 (sc), vehicle: steriod suspending solution): 112 % of control | T/C (endpoint: mean survival time, dose: 100.0 mg/kg/injection, schedule: Q01DX009 (sc), vehicle: steriod suspending solution): 116 % of control | T/C (endpoint: mean survival time, dose: 100.0 mg/kg/injection, schedule: Q01DX010 (sc), vehicle: steriod suspending solution): 108 % of control | T/C (endpoint: mean survival time, dose: 200.0 mg/kg/injection, schedule: Q01DX009 (sc), vehicle: steriod suspending solution): 113 % of control and 116 % of control

Nc1nc(N)c2nc(COc3ccc(C(=O)NC(CCC(=O)O)C(=O)O)cc3)cnc2n1 (centres undefined)
T/C (endpoint: mean survival time, dose: 0.38 mg/kg/injection, schedule: Q01DX009 (ip), vehicle: saline with Tween-80): 110 % of control | T/C (endpoint: mean survival time, dose: 0.75 mg/kg/injection, schedule: Q01DX009 (ip), vehicle: saline with Tween-80): 109 % of control | T/C (endpoint: mean survival time, dose: 1.5 mg/kg/injection, schedule: Q01DX009 (ip), vehicle: sodium bicarbonate): 168 % of control | T/C (endpoint: mean survival time, dose: 3.0 mg/kg/injection, schedule: Q01DX009 (ip), vehicle: saline with Tween-80): 95 % of control | T/C (endpoint: mean survival time, dose: 3.0 mg/kg/injection, schedule: Q01DX009 (ip), vehicle: sodium bicarbonate): 179 % of control | T/C (endpoint: mean survival time, dose: 6.0 mg/kg/injection, schedule: Q01DX009 (ip), vehicle: sodium bicarbonate): 157 % of control

COC(=O)c1cccc2c1ccc1ccccc12
T/C (endpoint: mean survival time, dose: 75.0 mg/kg/injection, schedule: Q01DX001 (ip), vehicle: saline): 91 % of control | T/C (endpoint: mean survival time, dose: 150.0 mg/kg/injection, schedule: Q01DX001 (ip), vehicle: saline): 95 % of control

NCC1OC(OC2C(CO)OC(OC3C(O)C(N)CC(N)C3OC3OC(CO)C(O)CC3N)C2O)C(N)C(O)C1OC1OC(CO)C(O)C(O)C1O (centres undefined)
T/C [8]: 98 % of control | T/C [9]: 92 % of control | T/C [10]: 95 % of control

CN(C)c1ccc(N=C2CC(=Nc3ccc(N(C)C)cc3)c3ccccc3C2=O)cc1
T/C (endpoint: mean survival time, dose: 100.0 mg/kg/injection, schedule: Q04DX003 (ip), vehicle: saline): 104 % of control | T/C (endpoint: mean survival time, dose: 200.0 mg/kg/injection, schedule: Q04DX003 (ip), vehicle: saline): 96 % of control | T/C (endpoint: mean survival time, dose: 400.0 mg/kg/injection, schedule: Q04DX003 (ip), vehicle: saline): 101 % of control

O=C1CSC(=S)N1c1cccc(C(F)(F)F)c1
T/C [1]: 97 % of control | T/C [2]: 112 % of control | T/C [3]: 101 % of control

CC(C)c1cc2c(cc1O)C1(C)CCCC(C)(C(=O)O)C1CC2 (centres undefined)
T/C [1]: 98 % of control | T/C [4]: 95 % of control | T/C [2]: 102 % of control | T/C [11]: 96 % of control | T/C [3]: 101 % of control | T/C [12]: 94 % of control

Cc1ccc(Sc2cccc3c(C)c4cccc5c4c(c23)C[S+]5c2ccc(C)cc2)cc1 (centres undefined)
T/C (endpoint: mean survival time, dose: 6.25 mg/kg/injection, schedule: Q04DX003 (ip), vehicle: saline with Tween-80): 98 % of control

Cc1cc([N+](=O)[O-])ccc1P(=O)(O)O
T/C (endpoint: mean survival time, dose: 50.0 mg/kg/injection, schedule: Q01DX009 (ip), vehicle: saline): 88 % of control

C=C1C(=O)O[C@@H]2C[C@@]3(C)CCC[C@H](C)C3=C[C@H]12
T/C (endpoint: mean survival time, dose: 100.0 mg/kg/injection, schedule: Q01DX009 (ip), vehicle: saline): 98 % of control | T/C (endpoint: mean survival time, dose: 200.0 mg/kg/injection, schedule: Q01DX009 (ip), vehicle: saline): 101 % of control

C=C1N(C)c2ccccc2C1(C)C
T/C (endpoint: mean survival time, dose: 0.78 mg/kg/injection, schedule: Q01DX009 (ip), vehicle: saline with Tween-80): 104 % of control | T/C (endpoint: mean survival time, dose: 1.56 mg/kg/injection, schedule: Q01DX009 (ip), vehicle: saline with Tween-80): 101 % of control | T/C (endpoint: mean survival time, dose: 3.12 mg/kg/injection, schedule: Q01DX009 (ip), vehicle: saline with Tween-80): 97 % of control | T/C (endpoint: mean survival time, dose: 6.25 mg/kg/injection, schedule: Q01DX009 (ip), vehicle: saline with Tween-80): 98 % of control | T/C (endpoint: mean survival time, dose: 12.5 mg/kg/injection, schedule: Q01DX009 (ip), vehicle: saline with Tween-80): 92 % of control and 100 % of control | T/C (endpoint: mean survival time, dose: 25.0 mg/kg/injection, schedule: Q01DX009 (ip), vehicle: saline with Tween-80): 94 % of control | T/C (endpoint: mean survival time, dose: 50.0 mg/kg/injection, schedule: Q01DX009 (ip), vehicle: saline with Tween-80): 94 % of control

Cc1nc(N)nc(N)n1
T/C [4]: 100 % of control | T/C [11]: 100 % of control | T/C [12]: 97 % of control

O=[N+]([O-])c1cc(S(=O)(=O)O)cc(S(=O)(=O)O)c1O
T/C [8]: 100 % of control | T/C [9]: 107 % of control | T/C [10]: 103 % of control
